Here are results for one compound from patent US6387955B1, “Enhanced anti-angiogenic activity of permanently charged derivatives of steroid hormones” (Pharmos Corporation, priority 1997, dated 2002).

Assay [1] relates to MCF-7 tumors. Description: Capillary density in MCF-7 tumor sections by microscopic morphometry. It counts as in vivo, nude mice. Conditions: viable regions only. The procedure:
Tumors from TMI-treated animals and from placebo-treated animals were removed after cervical dislocation. Tumors were treated with a biological dye (Davidson Marking Systems, Bradley Products, Bloomington, Minn.) so that histological sections could be oriented in the same direction as MRI slice images. The histological plane corresponding to the central slice of the MRI study was established by a single cut through the tumor. This plane was based on the position of the tumor in the spectrometer, sagittal, transverse and coronal images and anatomical landmarks. The bisected tumors were fixed in 10% formalin, dehydrated in 70% ethanol, blocked in paraffin. 4 μm histological sections were cut, placed on slides and stained with either hematoxylin-eosin or a modified trichrome method. Hematoxylin-eosin was used to assess viability, necrosis and pigmentation. The modified trichrome method was applied to the identification of fibrotic regions (i.e., the dye stains for mucopolysaccharides).
Vascular density was determined using two techniques: by morphometric analysis of histological sections and by image analysis of GSL-1 lectin stained sections. […] In each field, the number of grid squares containing capillaries, as defined by either the presence of red blood cells or a distinct endothelial cell, were recorded. […]

In assay [2] the test system is murine endothelial cells in MCF-7 tumors. Briefly: Endothelial cell area in GSL-1 lectin stained MCF-7 tumor sections. Format: in vivo, nude mice. The following applies: viable areas of tumors, three days treatment, GSL-1 staining; control tumors 14%. The procedure: For specific staining of endothelial cells, paraffin-embedded sections (4 μm) were deparafinized and rehydrated. Sections were first treated with a blocking solution containing nonimmune goat serum for 30 min at room temperature and then with a 0.1 mg/ml solution of biotinylated Griffonia simplicifolia lectin (GSL-1) for 60 min. The GSL-1 lectin binds specifically to α-galactosyl residues and marks the vascular endothelium in mice. The sections were then washed with TRIS buffered saline (TBS) and treated for 30 min with avidin-biotin-peroxidase complex (Vector Laboratories, Burlingame, Calif.), after which the peroxidase was activated by incubation of the sections with 0.1 M acetate buffer (pH 5.2) containing 3% H2O2 and 3% 3-amino-9-ethylcarbazole for 5-10 min. […] The area of stained endothelial cells was determined by measuring the area above a threshold intensity (red 46-165; green 25-119; blue 37-94) of the peroxidase reaction product in each slice. […] Ten to fifteen areas per section were recorded for tumors treated three days with either the placebo and TMI.
Vascular density of murine endothelial cells was evaluated by specific staining, using the GSL-1 lectin (the equivalent of factor VIII antibody staining for human endothelial systems) followed by color image analysis of the resulting sections. […]

The subject of assay [3] is MMP-2 (Gelatinase A) promoter. Description: MMP-2 (Gelatinase A) related CAT activity in transfected bovine endothelial cells. It counts as cell-based. The procedure:
Regulation of collagenase gene expression (for MMP-2 and MMP-9) was studied by measuring the activation of the relevant promoters linked to chloramphenicol acetyl transferase (CAT) as a reporter gene. The relevant vectors were introduced into the fibrosarcoma and endothelial cells by the lipofection as indicated by the manufacturer. CAT activity was determined after 3, 6 and 24 hrs either in the absence or presence of various concentrations of TMI.
To further examine where the inhibitory effects of TMI are manifested, human fibrosarcoma cells as well as bovine endothelial cells were transfected with plasmids containing the promoters for type IV collagenase (both MMP-2 and MMP-9) and the chloramphenicol acetyl transferase (CAT) construct to act as a reporter. Simian virus-40 (SV-40) served as the positive control. TMI was added to the transfected cells at concentrations of 1, 5 and 10 μM for 2 days, at which time cell viability was confirmed by trypan blue exclusion and cell counting.
In endothelial cells, TMI reduced CAT activity by 45% at 1.0 μM and by 80% at 10 μM.

Each structure is given as a SMILES string.

For the compound `CC/C(=C(\c1ccccc1)c1ccc(OCC[N+](C)(C)C)cc1)c1ccccc1` [TMI, Tamoxifen methiodide], the “reduction in capillary area compared with the placebo” value in assay [1] stood at 50%. For the same compound, the “mean percentage of endothelial cell areas” value in assay [2] is on record as 5%. Also, the results for the “reduction of CAT activity” value in assay [3] (1.0 μM) and in assay [3] (10 μM) were 45% and 80%, respectively.
